Measurements published in US20150329864A1, “DESIGN OF OLIGONUCLEOTIDE ANALOGS AS THERAPEUTIC AGENTS” (SPRING BANK PHARMACEUTICALS, INC., priority 2010, published 2015).
Entries after “also recorded” stand apart in the source; their conditions may differ.

Tests used:
[1] = system: HCV replicon H/FL-Neo (genotype 1a (H77), full length construct); assay: Secondary anti-HCV assay, replicon H/FL-Neo; format: cell-based; details: Hepatitis C virus
Description: This assay assesses activity against additional genotypes using the format described for the primary assay. Activity against the genotype 1b HCV was included for comparison. A replicon cell line containing H/FL-Neo (genotype 1a (H77), full length construct) (Blight, et al., 2003, J. Virol. 77:3181) was used.

HBV WT = assay: HepG2.2.15 cell-based HBV assay, wild type; details: Hepatitis B virus
Method: Selected compounds were evaluated in in vitro cell-based HepG2.2.15 HBV assay.
Antiviral analysis. For the antiviral analyses, confluent cultures of 2.2.1.5 cells were maintained on 96-well flat-bottomed tissue culture plates in RPMI1640 medium with 2% fetal bovine serum. Cultures (6 per each test concentration on two replicate plates) were treated with 9 consecutive daily doses of the test compounds. Medium was changed daily with fresh test compounds. HBV nucleic acid and protein levels were measured 24 hours after the last treatment. Extracellular (virion) HBV DNA levels were assessed by quantitative blot hybridization. Intracellular HBV DNA levels were measured by quantitative Southern blot hybridization.
The uptake of neutral red dye was used to determine the relative level of toxicity 24 hours following the last treatment. The absorbance of internalized dye at […] (A510) was used for the semi-quantitative analysis. Values are presented as a percentage of the average A510 values (±standard deviations) in 9 separate cultures of untreated cells maintained on the 96-well plates seeded at the same time with the identical pool of stock cells used for the antiviral analyses and maintained in an identical manner. A total of 3 cultures were treated with each concentration of the test compound.

PBMCs = format: cell-based
hepatitis B virus (HBV) = assay: Effect of i.p. administration on hepatitis B virus in transgenic mice; format: in vivo
Method: Compound 5 was evaluated in transgenic mice expressing hepatitis B virus (HBV). […] Its activity was also similar to the adefovir dipivoxil (ADV) anti-HBV activity; however, the two compounds seemed to suppress different HBV DNA species. […] In contrast, Compound 5 appeared to indiscriminately remose all HBV DNA species, including the bands typically left by ADV, which may reflect a different mechanism of action other than classical chain termination. Serum HBe, liver HBs, and HBc were not affected by Compound 5 treatment, which is consistent in transgenic mice with compounds that block viral synthesis “downstream” from mRNA synthesis, such as blockage of polymerase activities. A minimal effective dosage was determined to be between 1.6-0.5 mg/kg/day, which was similar to ADV minimal effective dosage of 1.0 mg/kg/day (Table 8).

RIG-I = biological target: T1, RIG-I (Homo sapiens, UniProt O95786); assay: RIG-I translocation on dsRNA, single-molecule PIFE assay; format: biochemical
T1 sequence (O95786 1-925): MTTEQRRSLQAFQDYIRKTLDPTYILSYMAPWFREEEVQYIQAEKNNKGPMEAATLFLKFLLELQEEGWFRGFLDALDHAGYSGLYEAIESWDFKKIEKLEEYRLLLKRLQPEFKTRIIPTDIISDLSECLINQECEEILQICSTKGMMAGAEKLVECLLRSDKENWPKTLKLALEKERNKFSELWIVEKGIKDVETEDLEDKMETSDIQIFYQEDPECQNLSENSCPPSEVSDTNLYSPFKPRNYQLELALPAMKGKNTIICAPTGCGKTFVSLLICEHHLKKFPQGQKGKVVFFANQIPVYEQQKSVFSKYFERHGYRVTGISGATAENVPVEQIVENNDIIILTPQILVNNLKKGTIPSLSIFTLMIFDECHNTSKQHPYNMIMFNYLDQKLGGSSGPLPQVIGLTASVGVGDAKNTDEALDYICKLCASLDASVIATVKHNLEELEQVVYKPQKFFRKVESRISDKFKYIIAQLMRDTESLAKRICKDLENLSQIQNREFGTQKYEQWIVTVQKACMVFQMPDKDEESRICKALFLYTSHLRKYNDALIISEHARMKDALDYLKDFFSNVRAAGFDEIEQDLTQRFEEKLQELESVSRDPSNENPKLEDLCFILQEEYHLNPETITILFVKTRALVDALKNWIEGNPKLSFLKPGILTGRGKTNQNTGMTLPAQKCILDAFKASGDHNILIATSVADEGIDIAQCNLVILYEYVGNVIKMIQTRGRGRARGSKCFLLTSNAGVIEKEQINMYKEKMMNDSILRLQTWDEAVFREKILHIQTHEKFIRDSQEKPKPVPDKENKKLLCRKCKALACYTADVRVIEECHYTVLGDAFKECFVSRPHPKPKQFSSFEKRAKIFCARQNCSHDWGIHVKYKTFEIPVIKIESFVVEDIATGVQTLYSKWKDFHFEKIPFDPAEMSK
Method: An in vitro single-molecule fluorescence assay termed PIFE (protein induced fluorescence enhancement) was employed to monitor such movement (Myong, S. et al., Science, 323, 1070, 2009).
For quantitation of RIG-I translocation, Single molecule PIFE yields were estimated. Single molecule PIFE yields are obtained from several hundred molecules simultaneously, allowing statistically reliable data collection.
The translocation as above was carried out using different concentrations of nucleotide compound.
A standard dsRNA (25 bp) was used as a main substrate for RIG-I translocation assay. […] The ratio between rapid (stimulated) translocation and slow translocation would be accounted for in the estimation of compound strength. In order to quantify the affinity of the compound to RIG-I or to RNA substrate, various concentrations of the compound (1-100 μM range) were used in the assay. This enabled the calculation of the association/dissociation constant for each compound, which was a useful measure to apply in cell-based evaluation of compound potency.
The same translocation assay was used on dsRNA, which contains […] moiety with and without the compound.

[2] = 100 mg/kg/d i.p. once daily 14 days, group listed with C:E:S vehicle
[3] = 100 mg/kg/d i.p. once daily 14 days, group listed with saline placebo

CO[C@H]1C(OP(=O)(OC[C@H]2O[C@@H](n3cnc4c(N)ncnc43)CC2O)SCOC(=O)OC(C)C)[C@@H](CO)O[C@H]1n1ccc(=O)[nH]c1=O (some centres unmarked) [Compound 6k]
EC50 [1]: 1 µM
EC90 [1]: ~6 µM
EC50 (HBV WT): 2.5 µM
EC90 (HBV WT): 8.5 µM

CO[C@H]1C(OP(=O)(S)OC[C@H]2O[C@@H](n3cnc4c(N)ncnc43)CC2O)[C@@H](CO)O[C@H]1n1ccc(=O)[nH]c1=O (some centres unmarked) [Compound 5, 3-dApsU2′-OMe]
induction of IFN (PBMCs): induction of IFN beta
Liver HBV DNA (mean pg viral/μg cellular DNA ± stdev) (hepatitis B virus (HBV); [2]): 1.7 ± 1.5 (9) pg viral/μg cellular DNA
Liver HBV RNA (mean relative units ± stdev) (hepatitis B virus (HBV); [2]): 1.7 ± 0.3 relative units
Liver HBeAg (mean stained cells/100 × field ± stdev) (hepatitis B virus (HBV); [2]): 24 ± 15 stained cells/100 × field
Serum HBV DNA (mean log10 genome equivalents/mL serum ± stdev) (hepatitis B virus (HBV); [2]): 5.4 ± 0.6 (7) log10 genome equivalents/mL serum
Serum HBeAg (mean ng/mL ± stdev) (hepatitis B virus (HBV); [2]): 1241 ± 279 ng/mL
Serum HBsAg (mean ng/mL ± stdev) (hepatitis B virus (HBV); [2]): 28 ± 15 ng/mL
Liver HBV DNA (mean pg viral/μg cellular DNA ± stdev) (hepatitis B virus (HBV); [3]): 0.3 ± 0.4 (8) pg viral/μg cellular DNA
Serum HBV DNA (mean log10 genome equivalents/mL serum ± stdev) (hepatitis B virus (HBV); [3]): 5.0 ± 0.3 (8) log10 genome equivalents/mL serum
effect on liver HBV DNA (hepatitis B virus (HBV); i.p. once daily 14 days, 100 mg/kg/day, saline or cremaphor:ethanol:saline vehicles): significantly reduced liver HBV DNA
effect on serum HBe, liver HBs, and HBc (hepatitis B virus (HBV); i.p. treatment): not affected
RIG-I translocation on dsRNA (activity in words) (RIG-I; PIFE assay): rapid translocation on dsRNA in a dose-dependent manner; also recorded: strong activators of RIG-I translocation
proportion of fast RIG-I translocation (RIG-I; concentration increased from 5 μM up to 170 μM): corresponding increase in the proportion of fast translocation
